“And” between values parts separate entries of the source, which are not always exact repeats. Equal entries are not always repeated. “Also recorded” adds a separate entry of the source.

The values that follow come from patent publication US20240279201A1, “DUAL WNT SIGNALING PATHWAY INHIBITORS AND AMPK ACTIVATORS FOR TREATMENTS OF DISEASE” (priority 2021, published 2024).

For series [1], the system named is Wnt/β-Catenin signaling pathway. The series can be described thus: Wnt signaling luciferase (TOPflash) reporter gene assay. It counts as cell-based. The following applies: luciferase reporter gene assay; mean of three independent experiments; read-out: IC50 (nM) to inhibit the Wnt signaling activity. The source says:
A dual-luciferase gene reporter assay was used to test inhibitory activities of new compounds on Wnt signaling. […] Therefore, the effects of new compounds on AMPK was examined. […]

Series [2] is described as follows: Cytotoxicity (CC50) during the luciferase gene reporter assay. It counts as cell-based. The following applies: human, HEK293 cells; short treatment duration of the luciferase gene reporter assay.
The nature of series [3]: Pharmacokinetic (PK) studies, oral dose. The following applies: C57/BL6, mouse, blood, 5 mg/kg. The procedure:
The ADMET and PK properties of YA6060 was determined.
PK/Tox. The four selected compounds from in vitro evaluation above are subjected to PK and toxicity assessment in C57/BL6 mice. […] Compound concentrations is determined by LC/MS/MS. PK analysis is carried out on Phoenix Winnolin using non-compartmental analysis and compartment models. Compound accumulation in major tissues, including liver, kidney, heart, brain and intestine, are quantified. […] For study ii, a half number of mice per group are sacrificed immediately after the 3-week course and the remaining after a 2-week washout period to assess delayed toxicity. In toxicity studies, blood is collected upon euthanasia for liver and renal chemistries and complete blood counts, and major organs harvested and examined macro- and microscopically by veterinarian pathologists. It is expected that an understanding of PK properties, such as bioavailability, AUC, clearance, and toxic effects, such as general tolerance and specific toxicity in the liver, kidney, other major organs, and particularly Wnt-dependent tissues, such as intestine, stomach, and skin is established for these selected compounds.

The nature of series [4]: Toxicity in normal HEK293 cells. It counts as cell-based. The following applies: human. The procedure: YA6060 has an excellent druglike profile. […] The ADMET and PK properties of YA6060 was determined.
Another series concerns HT29 cells. The series can be described thus: Viability of HT29 cells. It counts as cell-based. As to conditions: Homo sapiens, HT-29, read-out: IC50, cell viability.
The subject of series [5] is DMNA-induced liver fibrosis. The series can be described thus: Dimethylnitrosamine (DMNA) liver fibrosis mouse model. The class given is in vivo, C57BL/6 mice. Here is the method: FIG. 4 illustrates that YA6060 protects liver from damage caused by dimethylnitrosamine (DMNA). Vehicle (top panels) or 10 mg/kg DMNA (bottom panels) was given on a Monday-Tuesday-Wednesday schedule each week; YA6060 or vehicle was given daily. After sacrifice of mice (6/group) at 4 weeks, paraffin sections were stained with Sirius Red to visualize collagen. […] Bars, 100 μm.
FIG. 10 is a graph of experimental data illustrating anti-fibrotic efficacy of YA6060 in mice. C57BL/6 mice received dimethylnitrosamine (DMNA, 10 mg/kg/d i.p. for 3d and then rest for 4d) or saline, with or without YA6060 (0.5 mg/kg/d) for 4 weeks. The fibrosis and inflammation biomarkers were examined by RT-PCR with the liver tissues.
FIG. 11A-FIG. 11C illustrate the effect of YA6060 on liver function in mice. C57BL/6 mice received dimethylnitrosamine (DMNA, 10 mg/kg/d i.p. for 3d and then rest for 4d) or saline, with or without YA6060 (0.5 mg/kg/d) for 4 weeks. The serum biochemistry was determined for alanine aminotransferase (ALT) and aspartate aminotransferase (AST) (FIG. 11A), albumin (FIG. 11B), and total bilirubin (FIG. 11C).
The effect of YA6060 treatment on the expression of fibrotic markers in LX-2 cells was examined. LX-2 cells were treated with TGF-beta to model fibrosis. Protein expression of collagen 1, vimentin, and alpha-SMA by Western blotting (FIG. 14A). mRNA expression of collagen 1, vimentin, and alpha-SMA by RT-PCR was examined (FIG. 14B). mRNA expression of genes associated with inflammation by RT-PCR was examined (FIG. 14C). The cells were treated with the indicated concentrations of YA6060 for 24 hours. *P<0.05, **P<0.01. The effect of YA6060 treatment on liver fibrosis in mice was also examined (FIG. 15). […]
Fibrosis in the liver tissues of the mice that received YA6060 treatment was quantified (FIG. 16). […] The collagen of liver tissues was stained by Sirius red (SR) and quantitated by Image J software. ***P<0.001. […]

Another series relates to AMPK. Briefly: Western blotting of phosphorylated AMPK in HEK293 cells. The class given is cell-based. The following applies: 100 nM, 24 h. The procedure:
FIG. 6A-FIG. 6E illustrate the development of Axin stabilizers with dual activities of Wnt inhibition and AMPK activation. […] HEK293 cells were used. B&C: 100 nM compounds, 24 h. FIG. 6D is a table showing the activity profile of YA6060. F=bioavailability; soubility is aqueous solubility.
A dual-luciferase gene reporter assay was used to test inhibitory activities of new compounds on Wnt signaling. […] Axin is also reported to form a complex with AMPK and its upstream kinase LKB1 (FIG. 12A and FIG. 12B) to facilitate AMPK activation. Therefore, the effects of new compounds on AMPK was examined. […] YA6060 and its analogs had dual activities of potent Wnt signaling inhibition and AMPK activation, which were dependent on the levels of scaffolding protein Axin.

For `Cc1ccccc1-n1nnc(C(=O)Nc2ccc3cc(CN4CCNCC4)ccc3n2)c1C` [YA6060], in series [1], the IC50 is 4.3 nM and 4 nM. In series [2], this molecule had a half-maximal cytotoxic concentration (CC50) of more than 92 µM. For the same molecule, the half-life in series [3] (oral) worked out at 160 min. In series [3] (po), the Cmax is 24000 ng/mL, the time to peak (Tmax) is 1.6 h, the bioavailability was 75% and the half-life amounted to 160 min. This molecule registered an IC50 in series [4] of more than 100 µM. Also, the IC50 in the series on HT29 cells stood at 8.6 µM. In addition, the “liver fibrosis (Sirius Red)” value in series [5] (0.5 or 5 mg/kg/day, 4 weeks) is “reduced dimethylnitrosamine (DMNA)-induced fibrosis; also recorded: strong protective effects”. In addition, the “inflammation infiltration (H&E hepatic histology)” value in series [5] (DMNA 4 weeks) is recorded as “ameliorated”. The “liver function (serum ALT, AST, albumin, total bilirubin)” value in series [5] (YA6060 co-treatment with DMNA) is reported as “normal liver function”. The “levels of phosphorylated AMPK (p-AMPK)” value in the series with AMPK is “significantly increased”.
